Data reported in patent publication US9657071B2, “IgE peptide vaccine” (NIPPON ZENYAKU KOGYO CO., LTD., priority 2012, dated 2017).

Experiments:
Format in all cases: in vivo
human IgE [1] = assay: Treatment experiment, dogs artificially sensitized with Dermatophagoides farinae: IgG antibody against human IgE (ELISA); conditions: beagles artificially sensitized with Dermatophagoides farinae, s.c. 1 mg five times
Experimental: Human IgE (Athens Research And Technology, Inc.; IgE, human Myeloma Plasma) was prepared at 1 μg/mL in an immobilization buffer (0.05 M carbonate buffer, pH 9.6), then added at a concentration of 100 μL/well to an ELISA plate, and left overnight at 4° C. The immobilization plate was washed once with PBS-T (0.05%). A blocking solution (4× Block Ace, Snow Brand Milk Products Co., Ltd.; UK-B80) was added thereto at a concentration of 200 μL/well. The plate was blocked by incubation at 37° C. for 1.5 hours. The serum was diluted 1000-fold with a diluent (PBS-T:Block Ace=9:1) and used. The plate was reacted with the serum at 37° C. for 1.5 hours and washed three times with PBS-T (0.05%). An anti-dog IgG antibody (Sheep anti-Dog IgG HRP, Bethyl Laboratories, Inc.; A40-118P) was diluted 2000-fold with a diluent and added thereto as a secondary antibody at a concentration of 100 μL/well. After reaction at 37° C. for 1.5 hours, the plate was washed three times with PBS-T (0.05%). […] Then, the measurement was performed using a plate reader (Bio-Rad Laboratories, Inc.; model 680) (dual: measurement: 450 nm, control: 570 nm). […]
Evaluation: serum was collected, and an IgG antibody against human IgE was assayed by ELISA. […] The IgE antibody against Dermatophagoides farinae was evaluated by ELISA. […]

dog IgE = assay: Intravenous administration test using rats: IgG antibody against dog IgE (ELISA); conditions: i.v.
Experimental: The dog IgE protein (Bethyl Laboratories, Inc.; P115), the mouse IgE protein (BD Biosciences, San Jose, Calif., USA), and the human IgE protein (Athens Research And Technology, Inc.; 16-16-090705-ML) were each prepared at 1 μg/mL, 500 ng/mL, 250 ng/mL, 125 ng/mL, 62.5 ng/mL, 31.2 ng/mL, 15.6 ng/mL, 7.8 ng/mL, 3.9 ng/mL, 1.95 ng/mL, and 0.97 ng/mL in an immobilization buffer (0.05 M carbonate buffer, pH 9.6), then added at a concentration of 100 μL/well to an ELISA plate, and left overnight at 4° C. The immobilization plate was washed once with PBS-T (0.05%). A blocking solution (4× Block Ace, Snow Brand Milk Products Co., Ltd.; UK-B80) was added thereto at a concentration of 200 μL/well. The plate was blocked by incubation at 37° C. for 1.5 hours. The serum was diluted 2000-fold with a diluent (PBS-T:Block Ace=9:1) and used. The serum of an unimmunized rat was similarly diluted and used as a negative control. […] Then, the measurement was performed using a plate reader (Bio-Rad Laboratories, Inc.; model 680) (dual: measurement: 450 nm, control: 570 nm).
This peptide was used in the immunization of rats without the use of an adjuvant, and antibody response to dog IgE was evaluated. […]
Blood was collected every 2 weeks from the administer start date up to 8 weeks after the third immunization. Serum was collected, and an IgG antibody against dog IgE was evaluated by ELISA (FIG. 13). […]

human IgE [2] = assay: Test using dog (Part 2): IgG antibody against human IgE (ELISA); conditions: healthy adult beagles 24 months old, s.c. 1 mg five times at 2-week intervals
Experimental: Human IgE (Athens Research And Technology, Inc.; IgE, human Myeloma Plasma) was prepared at 1 μg/mL in an immobilization buffer (0.05 M carbonate buffer, pH 9.6), then added at a concentration of 100 μL/well to an ELISA plate, and left overnight at 4° C. The immobilization plate was washed once with PBS-T (0.05%). A blocking solution (4× Block Ace, Snow Brand Milk Products Co., Ltd.; UK-B80) was added thereto at a concentration of 200 μL/well. The plate was blocked by incubation at 37° C. for 1.5 hours. The serum was diluted 1000-fold with a diluent (PBS-T:Block Ace=9:1) and used. The plate was reacted with the serum at 37° C. for 1.5 hours and washed three times with PBS-T (0.05%). An anti-dog IgG antibody (Sheep anti-Dog IgG HRP, Bethyl Laboratories, Inc.; A40-118P) was diluted 2000-fold with a diluent and added thereto as a secondary antibody at a concentration of 100 μL/well. After reaction at 37° C. for 1.5 hours, the plate was washed three times with PBS-T (0.05%). A substrate solution (citrate buffer supplemented with one TMBZ tablet (Sigma-Aldrich Corp.; T-3405) and further supplemented, immediately before use, with 2 μL of 30% H2O2) was added at a concentration of 100 μL/well to the plate and reacted therewith for 10 minutes. […] Then, the measurement was performed using a plate reader (Bio-Rad Laboratories, Inc.; model 680) (dual: measurement: 450 nm, control: 570 nm). […]

Sequence: KKTSVSASQWYTKHHNNATT (listed as Mus musculus) [M4-7-11]
- level of the IgG antibody against IgE (human IgE [1]): confirmed to elevate
- anti-dog IgE IgG antibody titers in rat serum (dog IgE; all dose groups, final day (8 weeks after the third vaccination day)): 3000 times
- level of the IgG antibody against dog IgE (dog IgE; rat, 1 mg, 500 μg, 100 μg or 50 μg per animal three times, no adjuvant, all groups): a rise in the level of the IgG antibody against dog IgE was confirmed
- level of the IgG antibody against IgE (human IgE [2]): confirmed to elevate
